Measured values taken from article PMC3850815, “Molecular details of ligand selectivity determinants in a promiscuous β-glucan periplasmic binding protein” (BMC Structural Biology, 2013).

Assays:
[1] = molecular target: T1, tmCBP (Thermotoga maritima cellobiose-binding protein) (Thermotoga maritima, UniProt Q9WXN8); assay: CD thermal denaturation at […] nm; conditions: Tm without ligand 94.8 °C; 1 mM ligand, 0.5 μM protein, 2 M guanidine hydrochloride, 10 mM Tris-HCl pH 8.0, 40 mM NaCl
T1 construct: gene TM_0031; recombinant, E. coli BL21-RIL, nickel chelation purification (tagged); 582 residues modelled; ligand-free protein from Enfor's minimal medium

[2] = molecular target: T1, tmCBP (Thermotoga maritima cellobiose-binding protein); assay: small-angle neutron scattering, ligand-induced closure; conditions: 5 mM ligand, 20 mM Tris pH 8.0, 40 mM NaCl, D2O, 20 °C
[3] = molecular target: the molecule itself; assay: small-angle neutron scattering (SANS); tmCBP at 4.2-16.7 mg/mL in 20 mM Tris pH 8.0, 40 mM NaCl, 100% D2O, 20°C; molecular mass from the intensity at zero scattering angle; apo protein, and with 5 mM cellobiose added (associations then alleviated)

Row | Tm [1] | Molecule | also measured
1 | 99.2 °C | OC[C@H]1O[C@@H](O[C@H]2[C@H](O)[C@@H](CO)OC(O)[C@@H]2O)[C@H](O)[C@@H](O)[C@@H]1O (stereo partly shown) [LR2, laminaribiose] | 
2 | 105.2 °C | OC[C@H]1O[C@@H](O[C@@H]2[C@@H](O)[C@H](O[C@@H]3[C@@H](O)[C@H](O[C@@H]4[C@@H](O)[C@H](O[C@H]5[C@H](O)[C@@H](CO)OC(O)[C@@H]5O)O[C@H](CO)[C@H]4O)O[C@H](CO)[C@H]3O)O[C@H](CO)[C@H]2O)[C@H](O)[C@@H](O)[C@@H]1O (stereo partly shown) [LR5, laminaripentaose] | 
3 |  | OC[C@H]1O[C@@H](O[C@H]2[C@H](O)[C@@H](O)C(O)O[C@@H]2CO)[C@H](O)[C@@H](O)[C@@H]1O (stereo partly shown) [cellobiose] | small-angle neutron scattering, ligand-induced closure [2]: Upon addition of ligand the protein undergoes large scale conformational changes
4 |  | Thermotoga maritima cellobiose binding protein (natural protein, final crystal models hold 582 amino acids; expected mass 68.7 kDa; the apo (ligand-free) form was used for the SANS measurement of self-association; also called tmCBP) QVSLPREDTVYIGGALWGPATTWNLYAPQSTWGTDQFMYLPAFQYDLGRDAWIPVIAERYEFVDDKTLRIYIRPEARWSDGVPITADDFVYALELTKELGIGPGGGWDTYIEYVKAVDTKVVEFKAKEENLNYFQFLSYSLGAQPMPKHVYERIRAQMNIKDWINDKPEEQVVSGPYKLYYYDPNIVVYQRVDDWWGKDIFGLPRPKYLAHVIYKDNPSASLAFERGDIDWNGLFIPSVWELWEKKGLPVGTWYKKEPYFIPDGVGFVYVNNTKPGLSDPAVRKAIAYAIPYNEMLKKAYFGYGSQAHPSMVIDLFEPYKQYIDYELAKKTFGTEDGRIPFDLDMANKILDEAGYKKGPDGVRVGPDGTKLGPYTISVPYGWTDWMMMCEMIAKNLRSIGIDVKTEFPDFSVWADRMTKGTFDLIISWSVGPSFDHPFNIYRFVLDKRLSKPVGEVTWAGDWERYDNDEVVELLDKAVSTLDPEVRKQAYFRIQQIIYRDMPSIPAFYTAHWYEYSTKYWINWPSEDNPAWFRPSPWHADAWPTLFIISKKSDPQPVPSWLGTVDEGGIEIPTAKIFEDLQKATM | binding result [3]: binds
